The source of these data is patent publication US20210154162A1, “DRUG AND PHARMACEUTICAL COMPOSITION CONTAINING TRANSPORT PROTEIN INHIBITOR, AND USE” (Institute of Basic Medical Sciences Chinese Academy of …, priority 2018, published 2021).

SMILES strings stand for the structures.

Assay [1] has as its system AhR. Kind of assay: AhR localisation and expression in CD8+ T cells (confocal microscopy, western blot). It is filed as cell-based, mouse. Conditions: 48 h. The method, then:
(1) CD8^+ T cells isolated from spleen were stimulated with 200 μM Kyn or Kyn+anti-CD3/CD28 beads for 48 h. CD8^+ T cells were fixed, stained with an anti-AhR antibody and imaged by confocal microscopy. Bar, […]. (2) The experimental steps were the same as those of step (1), except that the cytoplasmic and nuclear protein fractions were seperated prior to the western blot analysis of AhR. The intensity relative to that in the resting/Kyn group was calculated. (3) Western blot analysis of AhR expression in both resting CD8^+ T cells and anti-CD3/CD28 bead-activated CD8^+ T cells treated with PBS or Kyn (200 μM) for 48 h was carried out. AhR ratio of Nuc/Cyt was calculated relative to that in the Kyn (−) group.
In general terms: Immunoblotting shows a protein as a band on a membrane.

For a further assay, the system named is PD-1 promoter. Kind of assay: PD-1 promoter luciferase reporter in HEK293T cells. It is filed as cell-based. The conditions noted are these: Kyn 48 h. The procedure: (6) HEK293T cells were transiently co-transfected with the luciferase reporter PGL3 coupled to the PD-1 promoter together with an AhR or an empty plasmid for 24 h and then treated with Kyn for another 48 h.
A general note: In a reporter assay the amount or activity of a reporter protein is the signal.

A further assay has as its system CD8^+ T cells. As to the kind of experiment: Essential amino acids in the cytosol of activated CD8+ T cells (LC-QE-MS). It counts as cell-based. The conditions noted are these: 48-hour Kyn treatment.
In assay [2] the test system is PD-1. Kind of assay: PD-1 expression in resting CD8+ T cells treated with Kyn (flow cytometry). It is filed as cell-based, mouse. The method, then: (1) CD8^+ T cells were treated with Kyn (200 μM) for the time periods. The expression of PD-1 was determined by flow cytometry.
On the technique in general: A flow cytometer gives signals particle by particle.

The test system of a further assay is OT-1 CD8^+ T cells. Kind of assay: IFN-γ expression of OT-1 CD8+ T cells co-cultured with OVA-peptide loaded APCs. It counts as cell-based, mouse. The conditions noted are these: OT-1 CD8+ T cells pretreated with Kyn 200 μM 72 h, upon PD-1 blockade. The method, then:
(10) Splenic APCs pulsed with OVA257-264 (2 μg/ml) were co-cultured with OT-1 CD8^+ T cells in the presence of IgG or anti-PD-1 neutralizing antibody (10 μg/ml) for 72 h. IFN-γ expression was measured by flow cytometry (left). Or, CD8^+ T cells from OT-1 mice were treated with Kyn (200 μM) for 72 h, then co-cultured with OVA-peptide loaded APCs and treated with or without anti-PD-1 neutralizing antibody for 72 h (right). The data represented mean±SEM.

A further assay concerns B16 melanoma. As to the kind of experiment: B16 melanoma-bearing C57BL/6 mice treated with Kyn, DMF or Kyn+DMF. It is filed as in vivo, mouse. The method, then: (9) C57BL/6 mice with 5×5 mm B16 melanoma were treated with PBS, Kyn (50 μg/mouse, i.p., once every two days), DMF (5 μg/mouse, o.t., once every day) or Kyn+DMF for 6 days. PD-1 expression in CD8^+ T cells isolated from tumors was determined by flow cytometry (n=5). (14) The experimental steps were the same as those of step (9), except that the tumors were weighed. The weighing results were as shown in FIG. 6P. *p<0.05, **p<0.01; #p<0.05, ##p<0.01, as compared with CTL group. The data represented mean±SEM.

The test system of assay [3] is PD-1. As to the kind of experiment: ID8 ovarian cancer and H22 hepatocarcinoma ascites peritoneal tumor models. It is filed as in vivo, mouse. The conditions noted are these: Kyn i.p., 6 days. The method, then: (10) C57BL/6 mice were intraperitoneally injected with 1×10^6 ID8 ovarian cancer cells. After 10 days, mice were intraperitoneally administered with PBS, Kyn, DMF or Kyn+DMF for 6 days. CD8^+ T cells from ascites were isolated and PD-1 expression was determined by flow cytometry (n=5).

In assay [4] the test system is AhR. As to the kind of experiment: AhR translocation in human peripheral CD8+ T cells. Conditions: resting and activated peripheral CD8+ T cells from breast and lung cancer patients, Kyn treatment. It is filed as cell-based.
In assay [5] the test system is PAT4 and SLC7A8. Kind of assay: PAT4 and SLC7A8 expression in CD8+ T cells from breast cancer patients (real-time PCR). It counts as cell-based, human. The conditions noted are these: human CD8+ T cells, Kyn, 48 h. The procedure:
(8) CD8^+ T cells from breast cancer patients were treated with PBS, Kyn ([…] (20 μM) or Kyn/CH (50 μM) for 48 h. The expression of PAT4 and SLC7A8 was determined by real-time PCR. The determination results were as shown in FIG. 7I.

Assay [6] deals with PAT4 and SLC7A8. As to the kind of experiment: Effect of Kyn on the expression of PAT4 and SLC7A8 in OT-1 CD8+ T cells (fluorescence quantitative PCR). It is filed as cell-based. Conditions: activated mouse CD8+ T cells, 200 μM Kyn, 48 h. The method, then: Splenic CD8^+ T cells of OT-1 mice were obtained by magnetic bead sorting, and seeded into a 24-well plate (1 million cells/well) while anti-CD3/CD28 magnetic beads were added to activate T cells. The culture medium was RPMI-1640 added with 10 ng/mL mouse IL-2 and […] β-mercaptoethanol. Cells were grouped and treated with drugs as follows. Control group 1 (PBS): culture medium+PBS; Experimental group 2 (Kyn): culture medium+200 μM Kyn; RNA was collected from cells in each group after 48 h, and the expression of PAT4 and SLC7A8 was determined by fluorescence quantitative PCR.

Assay [7] relates to PD-1. As to the kind of experiment: Effect of SAR and BCH on PD-1 expression in mouse CD8+ T cells (flow cytometry). It counts as cell-based. Conditions: 200 μM Kyn, 48 h. The procedure:
Mouse splenic CD8^+ T cells were obtained by magnetic bead sorting, and seeded into a U-shaped bottom 96-well plate (100000 cells/well) while anti-CD3/CD28 magnetic beads were added to activate T cells. The culture medium was RPMI-1640 added with 10 ng/mL mouse IL-2 and […] β-mercaptoethanol. Cells were grouped and treated with drugs as follows.
(§1) Control group 1 (PBS): culture medium+PBS;
(§2) Experimental group 2 (Kyn): culture medium+200 μM Kyn;
Experimental group 3 (Kyn+SAR): culture medium+200 μM Kyn+10 mM SAR;
Experimental group 4 (Kyn+BCH): culture medium+200 μM Kyn+100 μM BCH;
(§3) The expression level of PD-1 in CD8^+ T cells of each group was determined by flow cytometry after 48 h.

The test system of assay [8] is PD-1. Kind of assay: Effect of SAR and BCH on PD-1 expression in human peripheral blood CD8+ T cells (flow cytometry). It is filed as cell-based. Conditions: breast cancer patients, 200 μM Kyn, 48 h. The procedure: Mononuclear cells were isolated and obtained from the peripheral whole blood of breast cancer patients by using Ficoll. CD8^+ T cells were sorted by magnetic beads, and seeded into a U-shaped bottom 96-well plate (100000 cells/well) while anti-CD3/CD28 magnetic beads were added to activate T cells. The culture medium was RPMI-1640 added with 10 ng/mL human IL-2. Cells were grouped and treated with drugs as follows.
as §1, §2
Experimental group 3 (Kyn+SAR): culture medium+200 μM Kyn+10 mM SAR; Experimental group 4 (Kyn+BCH): culture medium+200 μM Kyn+100 μM BCH;
as §3

Take `Nc1ccccc1C(=O)CC(N)C(=O)O` (centres unmarked) [Kyn, kynurenine]: the AhR localisation result with AhR [1] (activated T cells, 200 μM Kyn) is given as “translocation of cytoplasmic AhR to the nucleus”; in the assay on AhR [4], “promoted the translocation of AhR from the cytosol to nucleus”. Moreover, in the assay on AhR [1] (resting T cells, Kyn 200 μM, further increased in activated T cells), the AhR expression result was “upregulated”. The “increase of the luciferase activity” value worked out at 12 fold with PD-1 promoter (HEK293T overexpressing AhR) and 4 fold in the assay with PD-1 promoter (HEK293T with intrinsic AhR expression (empty control plasmid)). Also, in the assay with CD8^+ T cells, the “essential amino acids in the cytosol” value is “had no effect on most of the essential amino acids except some decrease of the intensity of threonine”. Further, the “time point of initial increase of PD-1” value in the assay on PD-1 [2] (Kyn alone) was found to be 48 h. For the same molecule, the PD-1 expression result in the assay with PD-1 [2] (Kyn alone 200 μM) was “enough to upregulate PD-1”. Also, in the assay with OT-1 CD8^+ T cells, the “production of IFN-γ” value is given as “upregulated”. For the same molecule, in the assay with B16 melanoma (Kyn 50 μg/mouse i.p. once every two days, 6 days), the “PD-1 expression in CD8+ T cells isolated from tumor, spleen or lymph nodes” value is on record as “upregulate”. In addition, in the assay with B16 melanoma (Kyn-treatment), the “tumor growth (tumors weighed)” value is recorded as “accelerated tumor growth”. Besides, the “PD-1 expression in peritoneal, splenic or lymph node CD8+ T cells” value in the assay on PD-1 [3] is given as “promoted”. Also, the “expression of IFN-γ and TNF-α” value with PD-1 [3] is on record as “inhibited”. For the same molecule, the “expression of SLC7A8 and PAT4” value in the assay with PAT4 and SLC7A8 [5] is “upregulated”. Moreover, the “expression of PAT4 and SLC7A8” value with PAT4 and SLC7A8 [6] is “significantly upregulating”. Moreover, in the assay with PD-1 [7], the “expression of PD-1 in CD8+ T cells” value is “significant increased”. In addition, the “PD-1 expression in peripheral blood CD8+ T cells” value in the assay on PD-1 [8] is on record as “significant increased”.
